# Source: patent US10889812B2, “Short non-coding protein regulatory RNAs (sprRNAs) and methods of use” (University of Maryland, Baltimore, priority 2014, dated 2021)
# What was measured:
# [1] = test system: HBE4 cells as well as primary normal human bronchial epithelial (NHBE) cells; test: Cell viability and cell growth curve assay (MTT, trypan blue); format: cell-based; details: compared with cells treated with scrambled DNA oligonucleotides (Scr)
# Method: We then wanted to determine whether piR-L-163 (SEQ ID NO:282) plays a functional role in human bronchial epithelial cells. We treated HBE4 cells as well as primary normal human bronchial epithelial (NHBE) cells with piR-L-163 complementary DNA oligonucleotides (Ant-163) (SEQ ID NO:496) or RNA oligonucleotides (Ant-163R) (SEQ ID NO:497) in the experiment. […] Cell cycle distributions were measured every 2 hrs. […]
# Cell viability and cell growth curve assay were determined by MTT assay and trypan blue exclusion assay, respectively as described previously (Kirino, Y. & Mourelatos, Z. Mouse Piwi-interacting RNAs are 2′-O-methylated at their 3′ termini Nat Struct Mol Biol. 14, 347-348 (2007)). BrieflySpecifically, MTT (5 mg/ml) was added into cells and incubated at culture condition for 3 hours, removed the medium carefully and dissolved formazan in DMSO, assay was used to assess the surviving cells and OD values were measured using Microplate Reader Manager (Bio Rad) at wavelengths of 570/690 nm. […] Unstained viable cells were counted in hemocytometer chamber under microscope. […]
# [2] = test system: HBE4 cells; test: Wound healing assay (gap closure); format: cell-based, human; details: HBE4, vs Scr control
# Excerpt: (§1) For cell migration, we used two complementary assays. […] To compensate potential differences in the cell numbers among different treatment conditions, we seeded 10% less cells for Ant-163 treated HBE4 cells and 10% more cells for piR-L-163 transfected H1792 cells.
# (§2) Two complimentary methods were used. For quantitative fluorescent dye assay, Innocyto™ Cell migration Assay kit (EMD Millipore) was used. Briefly, 24 hrs after treatment, 1×10^5 cells (10% less for Ant-163 treated cells or 10% more for piR-L-163 treated cells) were loaded to the upper chamber with growth factor-free Keratinocyte-SFM for (HBE4 cells) or serum-free DMEM (for H1792 cells) with the bottom chamber exposed to completed culture medium. Negative controls were used with 3 μM Latrunculin A. After 12 hrs incubation, fluorescence was measured using a fluorescence plate reader 485 nm (excitation) and 520 nm (emission) according to the manufacturer's instruction. For wound-healing assay, cells (24 hrs after treatment with different DNA or RNA oligonucleotides) were grown to confluence followed by scratching with a pipette tip to create a gap. The floating cells were removed and the gaps were monitored/photographed every 12 hrs.
# [3] = test system: ERM proteins; test: Pull down with biotin-conjugated piR-L-163 from HBE4 cell lysates, LC-MS-MS; format: binding, human; details: vs Scr control RNA
# Excerpt: Because of the unexpected cellular localizations of piR-L-163 during cell cycle progression, we suspected that piR-L-163 plays a biological role through interaction with proteins. To identify potential piR-L-163 interacting proteins, biotin-conjugated piR-L-163 RNA oligonucleotides were used as a bait to pull down cellular binding proteins in HBE4 cells.
# For IP using piR-L-163, synthesized biotin labeled RNA oligonucleotides (/5′Biosg/[…]-3′) (SEQ ID NO:502) was used and scrambled RNA (/5′Biosg/[…]-3′) (SEQ ID NO:503) used as a control.
# Protein extracts from 1×10^7 cells using HKMG lysis buffer (10 mM HEPES pH 7.9, 100 mM KCL, 5 mM MgCl2, 10% glycerol, 1 mM dithiothreitol, 0.1% NP40) with protease and phosphatase inhibitors (Roche) were incubated with 1 μg biotin-labeled RNA for 16 hr at 4° C. with rotation after pre-clearing with streptavidin beads, then coupled to 10 μl 50% of streptavidin agarose beads (Sigma-Aldrich). After incubation, the biotin-labeled oligonucleotide-coupled streptavidin beads were washed four times with HKMG lysis buffer. Samples were denatured in SDS protein loading buffer before running on a SDS-acrylamide gel.
# The target band for mass spectrometry was performed. […]
# The processed samples were analyzed using a nanoscale reverse-phase liquid chromatography using an Xtreme Simple nanoLC system (CVC/Q24 MicroTech). […]
# [4] = test system: H1792 cells; test: Wound healing assay (gap closure); format: cell-based, human; details: H1792, vs Scr control, Ant-163 or a mutant piR-L-163
# Excerpt: as §1, §2
Substance,cell viability and proliferation [1],gap closure [2],binding to ERM proteins (pull down) [3],gap closure [4]
"Ant-163: DNA sequence antisense to piR-L-163, SEQ ID NO:496, 5′-GGTCAGAGAATCAAAGTAACATCATGATAT-3′ (DNA, backbone and methylation of C not given here)",enhanced cell viability and proliferation,faster gap closure,,
"piR-L-163: sprRNA, SEQ ID NO:282; piRNA-L aligned to intron 10 of LAMC2; AUAUCAUGAUGUUACUUUGAUUCUCUGACC with 3′ 2′-O-methylation (listed as RNA, chemistry not fully specified; listed as Homo sapiens)",,,binds to ERM proteins,slower gap closure
